Measurements reported in PMC8466854, “Molecular Determinant of DIDS Analogs Targeting RAD51 Activity” (Molecules, 2021).
Where two headings read alike, the source gives them in different places.

Assays:
[1] = system: fibroblast and prostatic cancer cells; assay: Cytotoxicity (data not shown); type: cell-based
RAD51 [2] = biological target: T1, RAD51 (Homo sapiens, UniProt Q06609); assay: D-loop assay (RAD51-mediated D-loop formation); type: biochemical; settings: for Effect on D-loop structure formation: increasing concentration until 100 µM
T1 construct: His; made in house; host or cells: Escherichia coli BL21-DE3
T1 sequence (Q06609 1-339): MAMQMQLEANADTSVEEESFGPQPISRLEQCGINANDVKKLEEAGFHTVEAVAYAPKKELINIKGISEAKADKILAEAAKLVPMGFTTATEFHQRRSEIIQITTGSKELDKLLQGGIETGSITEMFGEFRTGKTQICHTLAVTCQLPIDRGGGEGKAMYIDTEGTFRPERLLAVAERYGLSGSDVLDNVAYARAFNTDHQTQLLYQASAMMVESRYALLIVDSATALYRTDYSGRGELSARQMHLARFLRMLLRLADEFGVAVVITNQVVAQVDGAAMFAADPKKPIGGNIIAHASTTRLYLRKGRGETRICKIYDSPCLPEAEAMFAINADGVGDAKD

[3] = parameters: method as in PMID 18642799; settings: aqueous solution ref 30; cited from earlier work
RAD51 [4] = biological target: T1, RAD51; assay: RAD51 self-association by BS3 chemical cross-linking; type: biochemical; settings: 50 µM of drug; for Effect on oligomer/monomer migration profile (self-association of RAD51): RAD51 8.5 µM, BS3 cross-link, SDS-PAGE; for Decrease of polymerization rate (oligomer/monomer form intensity ratio): three independent experiments
Description: The mechanism of action of these DIDS analogs molecules remains unclear, but they probably act on the protein–protein interaction site of RAD51. In order to assess their possible effect on the subunit–subunit RAD51 association, we investigated the oligomerization level of RAD51 in presence of these small molecules. By using BS3 cross-linker, we fixed the quaternary structure of RAD51 in absence or in presence of the five stilbene molecules. Oligomer and monomer forms were separated on SDS-PAGE and stained with Coomassie blue (Figure 4A). Oligomer forms include dimer, trimer, and high polymer while monomer form is well separated at 37 kDa.
Figure 4 Self-association of RAD51 is inhibited in the presence of DIDS, SITS, and DAZDS. (A) The polymerization of RAD51 was estimated by cross-link approach (see Material and Method section). (B) Oligomer and monomer forms ratio is presented as a histogram graph. Three independent experiments were performed and statistical analysis was performed using paired Student’s t-test. Statistical significance was assumed at ** p < 0.01, *** p < 0.001. Each error bar represents s.d. statistical analysis.
RAD51 at 8.5 µM was incubated with the indicated concentrations of chemical compounds for 5 min at room temperature in a buffer containing 20 mM sodium phosphate, 50 mM azidol, 1 mM MgCl2, and 1 mM ATP. The protein was cross-linked with 4.2 µM of BS3 (bis(sulfosuccinimidyl)suberate, Sigma) at room temperature for 30 min. Then the reaction was stopped by addition of Tris-HCl pH 8.1 at final concentration 33 mM for 15 min at room temperature. The sample was separated by SDS-PAGE at 10% and analyzed by Western blotting. Anti-RAD51 rabbit antibody was used as primary antibody (Sigma-Aldrich Cat# SAB2101936, RRID:AB_10607384), then secondary anti-rabbit antibody conjugated to alexafluor 680 (GAR 700: Molecular Probes Cat# A-21076, RRID:AB_2535736) was used for the detection. The quantification of monomer and cross-linked oligomers was performed by an Odyssey infrared imaging system scanner (LI-COR, Biosciences, Lincoln, NE, USA).

RAD51 nucleofilament = biological target: T2, RAD51 nucleofilament (Homo sapiens, UniProt Q06609); assay: DNA binding assay by bio-layer interferometry (BLItz), drug added after RAD51 is bound to ssDNA: nucleofilament dissociation; settings: drug added at 40 µM after association of RAD51 with ssDNA
T2 construct: His; made in house; host or cells: Escherichia coli BL21-DE3
T2 sequence (Q06609 1-339): T1 sequence (Q06609 1-339)
Experimental: (§1) Figure 3 DIDS derivatives modulate the RAD51 nucleofilament formation. The association and dissociation between RAD51 and ssDNA were evaluated by Blitz interferometry. RAD51 (2 µM) was pre-incubated in phosphate buffer in absence or presence of each molecule at different concentrations before the measurement. The association phase followed until 50 s while the dissociation phase was monitored until 80 or 90 s, as indicated in graphs. (A) Effect of DIDS family on the ssDNA-RAD51 association was evaluated at 40 µM concentration of each molecule including DIDS, DADS, DAZDS, DNDS, and SITS. (B) DIDS, (C) DAZDS, and (D) SITS were incubated with RAD51 at increasing concentrations of 2, 10, and 20 µM for 5 min before the measurement by BLItz approach. (E) The percent of nucleofilament formation in presence of stilbene molecule was calculated in comparison to the condition in absence of drug after 50 s. This percentage was presented in function to the increasing concentration (from 2 to 20 µM) of each small molecule. (F) RAD51 associates with ssDNA until 50 s, and then each molecule is added at 40 µM as indicated by the narrow in the graph.
To this purpose, we incubated RAD51 with ssDNA, then we added the drug, and we measured the dissociation kinetic of RAD51 nucleofilament (Figure 3F).
(§2) PolydT DNA (1 µM) is biotinylated to allow its binding to the streptavidin-coated biosensor. Two methods of evaluation are used: the former by pre-incubating RAD51 with the drug to test and the latter by adding the drug after RAD51 is bound to DNA. In the first case, 2 µM RAD51 is incubated with the drug for […] on ice, then RAD51-ssDNA binding measurement is performed (baseline phase: 10 s; association phase: 40 s; dissociation phase: 30 s). In the second case, RAD51-ssDNA binding is analyzed, and after the association phase, the drug is added to the reaction and dissociation effect is measured (baseline phase: 10 s; association phase: 50 s; dissociation phase: 40 s). For the two cases, reaction buffer is composed of Phosphate Buffer saline (PBS) and 1 mM ATP. The tip is regenerated with 50 mM NaOH during 40 s before reuse. Measures are realized on a BLItz device from ForteBio.

RAD51 [5] = system: RAD51; parameters: method as in PMID 19336413; settings: absence or presence of ATP has no influence ref 20; cited from earlier work
RAD51 foci formation = system: RAD51 foci formation; parameters: method as in earlier work; settings: leukemia cells / B cells ref 21, Muramatsu et al.; cited from earlier work
RAD51 [6] = biological target: T1, RAD51; assay: DNA binding assay by bio-layer interferometry (BLItz), RAD51 pre-incubated with drug: ssDNA-RAD51 association / nucleofilament formation; settings: for Effect on ssDNA-RAD51 association: RAD51 2 µM pre-incubated with drug, 40 µM of each molecule (Figure 3A); for inhibition at 20 µM: read-out: Inhibition of the association of RAD51 with ssDNA (reduction of nucleofilament formation)
Experimental: We have evaluated the steps preceding D-loop formation, namely the formation of the nucleofilament of RAD51. We investigated the effect of DIDS and its derivatives on ssDNA binding and the nucleofilament formation functions of RAD51 by bio-layer interferometry. Two approaches were undertaken: (i) to determine the impact of drugs on RAD51-ssDNA binding and (ii) to evaluate the ability of drugs to dissociate RAD51 nucleofilament. Concerning the first approach, we pre-incubated RAD51 with the drug of interest for 5 min before measuring ssDNA-RAD51 binding efficiency. […] At a concentration of 20 μM, DAZDS inhibits the association of RAD51 with ssDNA by more than 80% (Figure 3C,E), while at the same concentration the SITS slightly reduces the formation of the nucleofilament by about 10–20% (Figure 3D,E).
as §1, §2

RAD51 (Homo sapiens) = assay: BLI; settings: 1 mM ATP, RAD51 pre-incubated with DAZDS 20 uM, BLI (BLItz): PBS, 2 uM RAD51, biotinylated polydT 1 uM on streptavidin sensor, drug pre-incubation 10 min on ice (Methods; 5 min in Results), assay …
[7] = D-loop formation by RAD51, 1 to 100 µM of each molecule, three independent experiments, read-out: IC50 determination from D-loop data

| IC50 (RAD51 [2]; [7]) | Effect on ssDNA-RAD51 association (RAD51 [6]) | RAD51 nucleofilament formation (RAD51 [6]; from 10 µM of drug, RAD51 2 µM pre-incubated) | inhibition at 20 µM (RAD51 [6]; 20 µM of drug, RAD51 2 µM pre-incubated, after 50 s) | Molecule | Cytotoxicity ([1]; fibroblast and prostatic cancer cells, data not shown) | Effect on D-loop structure formation (RAD51 [2]) | Stability in aqueous solution [3] | Effect on oligomer/monomer migration profile (self-association of RAD51) (RAD51 [4]) | Decrease of polymerization rate (oligomer/monomer form intensity ratio) (RAD51 [4]) | Effect on nucleofilament stability (dissociation of RAD51 nucleofilament) (RAD51 nucleofilament) | RAD51 binding to ssDNA or dsDNA in the presence of the drug (RAD51 [5]) | RAD51 foci formation (RAD51 foci formation) | IC50 (RAD51 [2]) | IC50 (RAD51 [2]; read-out: IC50 determination from D-loop data, D-loop formation by RAD51, 1 to 100 µM of each molecule, three independent experiments) | inhibition at 20 µM (RAD51 [6]) | Cytotoxicity ([1]; cells not given, in contrast to DIDS) | binding signal (% inhibition of association) (RAD51 (Homo sapiens)) |
| --- | --- | --- | --- | --- | --- | --- | --- | --- | --- | --- | --- | --- | --- | --- | --- | --- | --- |
| 0.9 µM | inhibitory effect | totally inhibited | – | O=S(=O)(O)c1cc(N=C=S)ccc1C=Cc1ccc(N=C=S)cc1S(=O)(=O)O [DIDS, 4,4′-diisothiocyanatostilbene-2,2′-disulfonic acid] | relatively cytotoxic | inhibits D-loop intermediate structure in a dose-dependent manner | unstable in aqueous solution | decrease of oligomer forms in favor of RAD51 monomer | about 40% | totally dissociated the structure | unable to bind ssDNA or dsDNA | inhibit RAD51 foci formation | – | – | – | – | – |
| – | – | – | – | O=[N+]([O-])c1ccc(C=Cc2ccc([N+](=O)[O-])cc2S(=O)(=O)O)c(S(=O)(=O)O)c1 [DNDS, 4,4′-dinitrostilbene-2,2′-disulfonic acid] | – | no effect | – | no effect on the self-association of RAD51 | no effect | not able to dissociate the nucleofilament | – | – | > 100 µM | ≤ 100 µM | – | – | – |
| 41.3 µM | inhibitory effect | – | > 80% | [N-]=[N+]=Nc1ccc(C=Cc2ccc(N=[N+]=[N-])cc2S(=O)(=O)O)c(S(=O)(=O)O)c1 [DAZDS, 4,4′-diazidostilbene-2,2′-disulfonic acid] | – | significant inhibitory effect | – | decrease of oligomer forms in favor of RAD51 monomer | about 40% | totally dissociated the structure | – | – | – | – | – | weak cytotoxicity | – |
| – | – | – | – | polydT | – | – | – | – | – | – | – | – | – | – | – | – | > 80 |

| Molecule | IC50 (RAD51 [2]; [7]) | Effect on ssDNA-RAD51 association (RAD51 [6]) | RAD51 nucleofilament formation (RAD51 [6]; from 10 µM of drug, RAD51 2 µM pre-incubated) | inhibition at 20 µM (RAD51 [6]; 20 µM of drug, RAD51 2 µM pre-incubated, after 50 s) | Cytotoxicity ([1]; fibroblast and prostatic cancer cells, data not shown) | Effect on D-loop structure formation (RAD51 [2]) | Stability in aqueous solution [3] | Effect on oligomer/monomer migration profile (self-association of RAD51) (RAD51 [4]) | Decrease of polymerization rate (oligomer/monomer form intensity ratio) (RAD51 [4]) | Effect on nucleofilament stability (dissociation of RAD51 nucleofilament) (RAD51 nucleofilament) | RAD51 binding to ssDNA or dsDNA in the presence of the drug (RAD51 [5]) | RAD51 foci formation (RAD51 foci formation) | IC50 (RAD51 [2]) | IC50 (RAD51 [2]; read-out: IC50 determination from D-loop data, D-loop formation by RAD51, 1 to 100 µM of each molecule, three independent experiments) | inhibition at 20 µM (RAD51 [6]) | Cytotoxicity ([1]; cells not given, in contrast to DIDS) | binding signal (% inhibition of association) (RAD51 (Homo sapiens)) |
| --- | --- | --- | --- | --- | --- | --- | --- | --- | --- | --- | --- | --- | --- | --- | --- | --- | --- |
| CC(=O)Nc1ccc(C=Cc2ccc(N=C=S)cc2S(=O)(=O)O)c(S(=O)(=O)O)c1 [SITS, 4-acetamido-4′-isothiocyanatostilbene-2,2′-disulfonic acid] | – | inhibitory effect | – | – | – | significant inhibitory effect | – | decrease of oligomer forms in favor of RAD51 monomer | about 40% | – | – | – | 29 µM | – | 10 to 20% | – | – |
| Nc1ccc(C=Cc2ccc(N)cc2S(=O)(=O)O)c(S(=O)(=O)O)c1 [DADS, 4,4′-diaminostilbene-2,2′-disulfonic acid] | > 100 µM | – | – | – | – | no effect | – | no effect on the self-association of RAD51 | no effect | not able to dissociate the nucleofilament | – | – | – | – | – | – | – |
